Reference: ChEMBL document CHEMBL5131441, “De-novo designed β-lysine derivatives can both augment and diminish the proliferation rates of E. coli through the action of Elongation Factor P” (Bioorg Med Chem Lett, 2022)
The source made the active and inactive calls. The rule behind the calls is not given here.

Experiments:
Escherichia coli [1] = test: Antibacterial activity against Escherichia coli K12 harbouring wild type elongation factor P at 500 uM incubated for 240 mins by turbidity based analysis; format: functional, organism-based
Escherichia coli [2] = test: Antibacterial activity against Escherichia coli K12 harbouring elongation factor P deltayjeK variant assessed as reduction in bacterial growth at 500 uM incubated for 240 mins by turbidity based analysis; format: functional, organism-based
Escherichia coli [3] = test: Antibacterial activity against Escherichia coli K12 harbouring elongation factor P deltapoxA variant assessed as reduction in bacterial growth at 500 uM incubated for 240 mins by turbidity based analysis; format: functional, organism-based
Escherichia coli [4] = test: Antibacterial activity against Escherichia coli K12 harbouring elongation factor P delta-efp variant assessed as reduction in bacterial growth at 500 uM incubated for 240 mins by turbidity based analysis; format: functional, organism-based
[5] = Cytotoxicity against HEK293 cells assessed as cell survival rate at 50 uM relative to control; format: toxicity, cell-based; conditions: human, read-out: Survival
Escherichia coli [6] = test: Antibacterial activity against Escherichia coli K12 harbouring elongation factor P deltayjeK variant assessed as restoration in bacterial growth at 500 uM incubated for 240 mins in presence of gentamicin by turbidity based analysis; format: functional, organism-based
[7] = Cytotoxicity against HEK293 cells assessed as inhibition of cell growth; format: toxicity, cell-based; conditions: human
[8] = Cytotoxicity against HEK293 cells assessed as cell survival rate at 500 uM relative to control; format: toxicity, cell-based; conditions: human, read-out: Survival
Escherichia coli [9] = test: Antibacterial activity against Escherichia coli K12 harbouring elongation factor P deltayjeK variant assessed as reduction in bacterial growth incubated for 240 mins by turbidity based analysis; format: functional, organism-based

| Compound | Activity (Escherichia coli [2]) | Activity (Escherichia coli [6]) | further results |
| --- | --- | --- | --- |
| NCCCCCCCCCCCCNCCCC(N)CC(=O)O (racemic) | Active | – | Activity (Escherichia coli [1]): Active; Activity (Escherichia coli [3]): Active; Activity (Escherichia coli [4]): Active; viability at 50 µM [5]: 14% |
| CCCCCCNCCCC(N)CC(=O)O (racemic) | – | Active | IC50 [7]: 110 µM |
| NCCCCCCCCCCNCCCC(N)CC(=O)O (racemic) | Active | – | Activity (Escherichia coli [1]): Active; IC50 [7]: 250 µM; viability at 50 µM [5]: 81%; viability at 500 µM [8]: 0% |
| CC(=O)NCCCC(N)CC(=O)O (racemic) | – | Active | – |
| CCCNCCCC(N)CC(=O)O (racemic) | – | Active | – |
| CCNCCCC(N)CC(=O)O (racemic) | – | Active | – |
| CNCCCC(N)CC(=O)O (racemic) | – | Active | – |
| NC(CCCNCc1ccccc1)CC(=O)O (racemic) | – | Active | – |
| NCCCCC(N)CC(=O)O (racemic) | Active | – | – |
| NCCCCCCCCCCCNCCCC(N)CC(=O)O (racemic) | – | – | Activity (Escherichia coli [1]): Active |
| NCCCCCCCCNCCCC(N)CC(=O)O (racemic) | – | Active | – |
| GENTAMICIN | Active | – | MIC (Escherichia coli [9]): 6 µg/mL |
